According to paper PMC3781147 (PLoS ONE, 2013):

Experiments:
[1] = system: NOP receptors on rat mesenteric microvascular endothelium; test: Intravital microscopy study A: FITC-N/OFQ binding in mesenteric microcirculation; format: in vivo, rat (male Wistar); conditions: n=5
[2] = system: mean arterial pressure; test: Mean arterial pressure in anesthetised rats (study B); format: in vivo, rat (male Wistar)
[3] = system: heart rate; test: Heart rate in anesthetised rats (study B); format: in vivo, rat (male Wistar)
[4] = system: mesenteric arterioles; test: Intravital microscopy study B: arteriole diameter; format: in vivo, rat (male Wistar); conditions: n=6
[5] = system: mesenteric venules; test: Intravital microscopy study B: venule diameter; format: in vivo, rat (male Wistar)
[6] = system: post-capillary venules (<40 µm); test: Intravital microscopy study B: macromolecular leak of FITC-BSA; format: in vivo, rat (male Wistar); conditions: n=6
[7] = system: leukocyte rolling in post-capillary venules (<40 µm); test: Intravital microscopy study B: leukocyte rolling; format: in vivo, rat (male Wistar); conditions: n=6
[8] = system: cecal ligation and puncture (CLP) model of sepsis; conditions: 0.03 mg kg^-1, rats; improved from approximately 30%; cited from earlier work
Text: (§1) Only one study has previously utilised the selective NOP antagonist [Nphe^1, Arg^14,Lys^15]

[9] = system: hypothalamic pituitary adrenal stress response; conditions: UFP-101 i.c.v.; cited from earlier work
Text: as §1

[10] = system: plasma TNF-α and IL-1β; conditions: 0.03 mg kg^-1 UFP-101; cited from earlier work
Text: as §1

[11] = system: MAP; conditions: UFP-101 i.c.v.; cited from earlier work
Text: (§2) Further studies likewise reported no differences in MAP between NOP^-/- and wild-type mice. However, our findings of tachycardia are in contrast to Burmeister & Kapusta. […] In ...

[12] = system: heart rate, renal sympathetic nerve activity, MAP; conditions: 300 pmol UFP-101 into PVN, conscious Sprague-Dawley rats; cited from earlier work
Text: as §2

[13] = system: rat mesenteric microcirculation; conditions: unpublished data within previous studies; cited from earlier work
Text: Despite this, as part unpublished data within previous studies we also observed vasoconstriction with UFP-101 [9]. Compared to larger blood vessels the mesenteric microcirculation as studied here (<40 µm) receives little neural control. Thu ...

CC(C)C[C@H](NC(=O)[C@H](CCCCN)NC(=O)[C@H](CCCNC(=N)N)NC(=O)[C@H](C)NC(=O)[C@H](CO)NC(=O)[C@H](CCCCN)NC(=O)[C@H](CCCNC(=N)N)NC(=O)[C@H](C)NC(=O)CNC(=O)[C@@H](NC(=O)[C@H](Cc1ccccc1)NC(=O)CNC(=O)CNC(=O)[C@@H](N)Cc1ccccc1)[C@@H](C)O)C(=O)N[C@@H](C)C(=O)N[C@@H](CC(N)=O)C(=O)N[C@@H](CCC(N)=O)C(=O)N[C@@H](CCCCNC(=S)Nc1ccc2c(c1)C(=O)OC21c2ccc(O)cc2Oc2cc(O)ccc21)C(N)=O [FITC-N/OFQ, [Lys(FITC)^18]N/OFQ-NH2]
Binding to mesenteric microvascular endothelium ([1]; 200 nM kg^-1 FITC-N/OFQ into mesenteric artery, control rats): bound to specific sites on the endothelium of arterioles
Time course of decay of FITC fluorescence with vs without N/OFQ ([1]; gray level over 60 s, 200 nM kg^-1 FITC-N/OFQ with (T-15) and without (T0) 200 nM.kg^-1 N/OFQ): The time courses were significantly different

[Nphe^1, Arg^14,Lys^15] N/OFQ-NH2 [UFP-101]
Effect on MAP ([2]; UFP-101 150 nM kg^-1 i.v. alone (no LPS), n=6): no significant effect on MAP
Effect on LPS-induced hypotension ([2]; UFP-101 i.v., LPS rats): no reversal of the tachycardia or mild hypotension induced by LPS
Heart rate, T40 ([3]; UFP-101 150 nM kg^-1 i.v. alone (no LPS), median (IQR), n=6, control 330 (308 to 330), p=0.04): 375 bpm
Effect on LPS-induced heart rate increase ([3]; UFP-101 150 nM kg^-1 i.v. in LPS rats, T40, n=6, p=0.004): not altered by the addition of UFP-101
Effect on LPS-induced tachycardia ([3]; UFP-101 i.v., LPS rats): no reversal of the tachycardia
Arteriole diameter, T40, UFP-101 ([4]; UFP-101 150 nM kg^-1 i.v. alone (no LPS), median (IQR), control 16.2 (10.9 to 17.7), p=0.004, difference also present initially): 7.1 µm
Venule diameter, UFP-101 ([5]; UFP-101 150 nM kg^-1 i.v. alone (no LPS), T40, median (IQR), n=6, control 19.1 (17.8 to 20.8), p=0.001, difference also present initially): 9.7 µm
Effect on LPS-induced venule vasodilation ([5]; UFP-101 150 nM kg^-1 i.v., LPS rats): reduced vasodilation of venules in response to LPS
Macromolecular leak, T40, LPS + UFP-101 ([6]; 150nmol.kg^-1 UFP-101 i.v. in LPS rats, median (IQR), not significantly different from controls (p=0.063)): -34.9%
Effect on macromolecular leak, no LPS ([6]; UFP-101 150 nmol kg^-1 i.v. alone, p=0.151): no effect
Leukocyte rolling, T40, LPS + UFP-101 ([7]; 150nmol.kg^-1 UFP-101 i.v. in LPS rats, median (IQR), not significantly different from controls (p=0.117)): 0 per min
Effect on leukocyte rolling, no LPS ([7]; UFP-101 150 nmol kg^-1 i.v. alone, p=0.394): no effect
Survival in CLP, UFP-101 [8]: ~65%
HPA stress response to LPS [9]: reduced the hypothalamic pituitary adrenal stress response to LPS
Plasma TNF-α and IL-1β in CLP [10]: reduced plasma concentrations of TNF-α and IL-1β
Effect on MAP, i.c.v. mice [11]: no effect on MAP
Heart rate and renal sympathetic nerve activity [12]: increased heart rate and renal sympathetic nerve activity
MAP after PVN injection [12]: non-significant increase in MAP
Vessel constriction [13]: vasoconstriction

lipopolysaccharide [LPS]
Mean arterial pressure, T40 ([2]; LPS i.v. -24 h 1 mg kg^-1, -2 h 0.5 mg kg^-1, median (interquartile range), n=6, control 105 (95 to 110), p=0.429): 85 mmHg
Heart rate change with LPS, T40 ([3]; LPS i.v. -24 h 1 mg kg^-1, -2 h 0.5 mg kg^-1, n=6, p=0.004): significant increase in heart rate
Arteriole diameter change with LPS ([4]; LPS i.v. -24 h and -2 h, p=0.057): diameter changes in arterioles were not significant
Venule diameter, T40, LPS ([5]; LPS i.v. -24 h and -2 h, median (IQR), n=6, control 19.1 (17.8 to 20.8), p=0.002): 29.1 µm
Macromolecular leak, T40, LPS ([6]; LPS i.v. -24 h and -2 h, % change in interstitial FITC-BSA fluorescence from baseline, median (IQR), control 5.3 (-5.9 to 11.8), p=0.008): 95.3%
Leukocyte rolling, T40, LPS ([7]; LPS i.v. -24 h and -2 h, median (IQR), control 3.0 (0.8 to 3.8), p=0.003): 7.0 per min
